From the METLIN SMRT retention time set (Domingo-Almenara et al. 2019) come the findings set out here.

The series in a line: gradient 5% acetonitrile 3 min, to 50% in 2 min, to 85% in 15 min, held 3 min, 100 µL/min. The note with it: column: Zorbax Extend-C18 2.1 x 50 mm; eluents: water / acetonitrile, 0.1% formic acid. The procedure, abridged: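 Using water and acetonitrile that each contained 0.1% formic acid, mixtures of ~100 pure standards were separated at 100 μL/min on a Zorbax Extend-C18 column (2.1 × 50 mm, 1.8 μm). The HPLC fed a quadrupole time-of-flight mass spectrometer working in positive and negative ionization mode, with dead and dwell volumes of 40 μL and 900 μL. Data were acquired over 3 months. Retention time was read from computationally picked adduct peaks after manual inspection of each.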
Compound `C=CCNC(=O)c1cc2n(n1)CCCC2` registered an RP-LC retention time of 646 s. On to `CCn1cc(CN2CCC(N3CC4(CCCCC4)C3c3ccncc3)CC2)cn1` (stereo not drawn), for which the RP-LC retention time is 565 s. Under `Cc1oc2ccn(Cc3ccccc3F)c(=O)c2c1C(=O)NCc1ccc(F)cc1` stands 1090 s; under `COC(=O)c1ccc(NC(=O)Cc2csc(Nc3ccc(F)cc3)n2)cc1`, 838 s; under `COCCNC(=O)N1CCCN(C2=NS(=O)(=O)C(c3ccc(C)c(C)c3)=C2C)CC1`, 738 s. Consider `Cc1ccc(NC(=O)Cn2nc3n(c2=O)CCCCC3)c(C)c1`, for which the RP-LC retention time turned out to be 703 s. Under `COc1cccc(-c2noc(Cc3nnc(-c4ccc(C)c(C)c4)o3)n2)c1OC` stands 1060 s. Next, `CN1CCC2(CC1)N=C(c1ccc(Br)cc1)CC(c1cc(Cl)ccc1O)N2` (stereo not drawn): 675 s; `Cc1nc(C)c(C(=O)N2CCCC(c3nn(C)c(=O)n3-c3ccccc3)C2)s1` (stereo not drawn): 641 s; `CCOC(=O)C1CCN(c2ncc(C(=O)Nc3ccc(OC)cc3)c(N)n2)CC1`: 698 s.

`CCOC(=O)C1=C(CN2CCC(C)CC2)NC(=O)NC1c1cccs1` (stereo not drawn): the RP-LC retention time came to 611 s.

Take `Cc1ccccc1-c1noc(Cc2nnc(-c3cccc(Cl)c3)o2)n1`: the RP-LC retention time worked out at 1140 s. Under `COc1ccccc1NC(=O)Cn1c(C)cc(-c2nnc(-c3ccc(F)cc3)o2)c1C` stands 998 s; under `Cc1ccc(C)c(S(=O)(=O)N2C[C@@H](F)C[C@H]2C(=O)N2CCCCC2)c1`, 856 s; under `Cc1ccc(-c2cc(C(=O)N3CCN(c4ccc(N5CCOCC5)nn4)CC3)[nH]n2)c(C)c1`, 638 s. Next, `CC(=O)N1CCCC(c2nc(CNC(=O)C(C)C)cs2)C1` (stereo not drawn): 609 s; `O=C(Cn1cc(S(=O)(=O)Cc2ccccc2F)c2ccccc21)NCC1CCCO1` (stereo not drawn): 806 s; `O=C1CCN(C(=O)C2CCN(C(=O)NC3CCCCC3)CC2)CCCCCCN1`: 664 s. Under `CC1CCN(c2cnn(CC(=O)Nc3cccc(Cl)c3F)c(=O)c2Cl)CC1` stands 1020 s; under `C=CCOc1ccnc(-c2ccccc2)n1`, 1110 s; under `CCC(=O)N1CCc2sc(C(=O)NCc3ccc(Cl)cc3)cc2C1`, 802 s. `COc1cccc(CNC(=O)C2CCc3nc(N4CCCCC4)ncc3C2)c1` (stereo not drawn) displayed an RP-LC retention time of 665 s. Next, `COc1ccccc1CCC(=O)Nc1cc(-c2cccnc2)no1`: 781 s; `COc1ccc(S(=O)(=O)N2CCN(c3cc(C)nc(NC4CCCCC4)n3)CC2)cc1`: 770 s; `CC(=O)N1CCc2cc(S(=O)(=O)C(C)CC(=O)N3CCN(c4ccc(C)cc4C)CC3)ccc21` (stereo not drawn): 968 s. Under `CCCNC(=O)Cn1ccc2ccc(-c3nnc(C)o3)cc21` stands 678 s; under `Cc1ccc(CNC(=O)CN2C(=O)CCCc3cc(S(=O)(=O)N4CCCCC4)ccc32)cc1`, 891 s.

In the case of `CC(=O)c1ccc(NC(=O)C(C)Oc2cc(-c3ccccc3)c3c(C)nn(C)c3n2)cc1` (stereo not drawn), the RP-LC retention time is 990 s. Next, `O=C(Cc1ccsc1)NCCC1CCN(C(=O)Nc2cc(F)ccc2F)CC1`: 915 s; `O=C(NCCc1ccc(Cl)cc1)c1csc(C(=O)N2CCCC2)n1`: 894 s; `COc1cc(OC)cc(C(=O)N(C)CCc2noc(-c3ccc(C(=O)N4CCCC4)cc3)n2)c1`: 759 s. Under `CN(C)S(=O)(=O)c1ccc(-c2nnc(C(=O)NCc3cc(F)cc(F)c3)o2)cc1` stands 878 s; under `Cn1nc(-c2nnc(-c3ccc(F)cc3)o2)c2c1CCN(S(=O)(=O)c1ccc(F)cc1F)C2`, 985 s.

Consider `CC(C)c1nc(-c2ccc(C(=O)NCc3noc(COc4ccccc4)n3)cc2)no1`, for which the RP-LC retention time came to 998 s.

In turn, `c1cncc(-c2nc(-c3ccc(OC4CN(Cc5ccsc5)C4)cc3)no2)c1` showed an RP-LC retention time of 693 s. Under `CCCCOc1ccc(-c2cc3c4nnc(CCC(=O)N5CCN(C)CC5)n4ccn3n2)cc1` stands 686 s; under `O=C(COc1ccccc1F)NCC1(c2cccs2)CCOCC1`, 790 s. Under `COc1ccc(-c2cn3c(CC(=O)Nc4cc(OC)ccc4OC)csc3n2)cc1` stands 780 s; under `Cc1ccc(NC(=O)NC2CCN(C(=O)N3C[C@H]4C[C@H](C3)[C@H]3CCCC(=O)N3C4)CC2)cc1C`, 702 s; under `O=C(Nc1ccc(OC(F)(F)F)cc1)C1CCN(C(=O)C2Sc3ccccc3NC2=O)CC1` (stereo not drawn), 893 s. Next, `Cc1cnc(-c2ccncc2)n1CC1CN(Cc2cccn2C)C1`: 692 s; `COc1ccc(Cl)cc1S(=O)(=O)N1CC(c2nc(-c3ccncc3)nn2C)C1`: 664 s; `O=C(CN1C(=O)NC(c2ccc(Cl)cc2)C2=C1COC2=O)Nc1ccc(C(F)(F)F)cc1` (stereo not drawn): 895 s. `CCCCN(C)c1ccc(NC(=O)Cc2cccs2)c(C(=O)O)c1` gave an RP-LC retention time of 759 s. Under `Cc1ccccc1NC(=O)N1CCC2(CC1)Nc1ccccc1-n1cccc12` stands 982 s; under `CCOC(=O)c1ccc(NS(=O)(=O)c2cc(-c3c(CC)noc3NC(C)=O)ccc2OC)cc1`, 805 s. On to `Cc1nn(-c2nc(-c3ccc(F)cc3)cs2)c(C)c1CC(=O)Nc1ccc(Br)cc1`, for which the RP-LC retention time is 1240 s. Next, `O=C(Cc1nnc2c(-c3nc(C4CC4)no3)cccn12)NC1CCCC1`: 661 s; `Cc1ccc(CNC(=O)N2CCC(OC3CCN(S(C)(=O)=O)CC3)CC2)cc1`: 760 s. Next, `Cc1ccc(Nc2c(-c3ccc(Cl)cc3)nc3ncccn23)cc1C`: 942 s. Under `COc1ccc(/C=C2/CCOC2=O)cc1` stands 833 s; under `CCN(CC)c1ccc(CNC(=O)C2CCc3nc(N4CCOCC4)ncc3C2)cc1` (stereo not drawn), 588 s; under `CS(=O)(=O)N1C[C@H]2CCN(Cc3ccc(F)cc3F)C[C@H]21`, 584 s. `O=S(=O)(NCc1nc(-c2ccc(-c3csc(C4CC4)n3)cc2)no1)c1ccc(F)cc1` yielded an RP-LC retention time of 1080 s. Under `COc1ccc(NC(=O)Cn2cnc3nc(N4CCC(C)CC4)ncc3c2=O)cc1Cl` stands 834 s; under `O=C(NCc1cccc2ccccc12)NCC1CN(c2ccccc2)C(=O)O1` (stereo not drawn), 781 s. `COc1c(C)cnc(Cn2ccn3nc(-c4ccc(F)cc4)c(CO)c3c2=O)c1C`: the RP-LC retention time amounted to 843 s. Next, `CCc1nnc(-c2cn(CC(=O)Nc3cc(Cl)c(OC)cc3OC)c3ccccc23)o1`: 916 s. Next, `CC(CCc1ccccc1)NC(=O)Cc1nnc(-c2ccncc2)o1` (stereo not drawn): 744 s; `CN(Cc1ccccc1)C(=O)c1ccc(CN2CCN(C3CCCC3)C(=O)C2=O)cc1`: 763 s; `CSc1ccc(-c2nc3cnccn3c2Nc2cccc(C(=O)NCCN(C)C)c2)cc1`: 605 s. Under `CCOC(=O)c1c(S(=O)(=O)N2CCC(C(=O)NCCC3=CCCCC3)CC2)c(C)n(C)c1C` stands 896 s; under `O=C(Cn1ccc2ccc(N3CCOCC3)nc21)NCc1ccc2c(c1)OCO2`, 791 s; under `Cc1noc(-c2cc(=O)n(CC(=O)Nc3cc(F)cc(F)c3)c3ccccc23)n1`, 904 s.

Compound `CC(C)NC(=O)c1cc(C(C)C)[nH]n1` had an RP-LC retention time of 660 s. Under `O=C(NC1CCCC1)C1CCN(C(=O)c2ncn3c2COC(c2ccc(Cl)cc2)C3)CC1` (stereo not drawn) stands 780 s. Next, `Cc1ccc(-c2cc(C(=O)N3CCN(Cc4ccc5c(c4)OCO5)CC3)c(C)[nH]2)cc1C`: 718 s; `CCOc1ccc(CCNC(=O)c2nc(N3CCCC3)c3ccccc3n2)cc1OCC`: 732 s; `Cc1ccc(CNC(=O)C2(C)CN(S(C)(=O)=O)CC(=O)N2c2ccc(F)cc2F)cc1` (stereo not drawn): 814 s. Under `CN1Cc2ccccc2-n2ccnc2C12CCN(C(=O)c1ccc(Br)o1)CC2` stands 615 s; under `COC(=O)c1ccccc1NC(=O)CSc1ccc(N2CCCC(C(=O)NC3CC3)C2)nn1` (stereo not drawn), 683 s; under `Cc1ccc(CN2CCC(N3CC4(CCCCC4)C3c3ccncc3)CC2)o1` (stereo not drawn), 591 s. With `Cc1cccc2nc(-c3ccc(Cl)cc3)c(Nc3ccc4c(c3)OCO4)n12`, the RP-LC retention time amounted to 750 s. `Cc1cc(C(=O)N2CCCCC2)c2c(=O)n(CC(=O)N(C)c3ccccc3)c(=O)n(C)c2n1`: the RP-LC retention time was 812 s.

`Cc1nc2cc(-c3noc(-c4ccsc4)n3)ccc2o1` displayed an RP-LC retention time of 977 s. Under `O=C(C1=CN(c2cccc(Cl)c2)c2cc(F)ccc2S1(=O)=O)N1CCOCC1` stands 811 s; under `Cc1cccc(CS(=O)(=O)N2CC(c3nc(Cc4ccccc4)no3)C2)c1`, 977 s.

`O=C(Nc1ccc(SCc2nnc(-c3ccccc3)o2)cc1)c1ccc(Br)o1` returned an RP-LC retention time of 1010 s.
